# Data as given in patent US10501413B2, “Inhibitors of the Notch transcriptional activation complex and methods for use of the same” (UNIVERSITY OF MIAMI, priority 2015, dated 2019).
# Columns and labels:
# [1] = tested on: OE19 human esophageal adenocarcinoma xenograft; assay: OE19 cell line xenograft; format: in vivo; conditions: nude mouse
# Description: The effect of the inhibitors of the disclosure on tumor formation in an animal was investigated using a xenograft model. When introduced into the flank of nude mouse 5×10^6 OE19 cells, a human esophageal adenocarcinoma cell line readily forms tumors over the course of 4 weeks. […] In contrast, treatment under the same regimen with a DMSO control had no effect on tumor growth. […] (FIG. 4) Six-week-old NOD-SCID gamma (“NSG”) mice were purchased from Jackson Laboratories and CD-1 Nude mice were purchased from Charles River Laboratories. For the cell line based xenografts assay, 5×10^6 OE19 cells in 200 μl serum-free culture medium were injected subcutaneously per mouse. The mice in the treatment group were injected with 15 mg/kg of Inhibitor No. 1-134-83 daily, and the mice in the control group were injected with the same volume of vehicle (DMSO). Subcutaneous tumor growth was measured once every 4 days using calipers along with body weight. The experiment was discontinued on day 28. PDX cancer models were established, as described in Zhang et al, Establishment of Patient-Derived Xenograft (PDX) Models of Human Breast Cancer, Current Protocols in Mouse Biology, 3:21-29 (2013), in NSG mice. […] Tumor growth was monitored every 4 days and tumor volume was measured by the formula: Volume=(S×S×L)/2, where S and L are the short and long dimensions. […]
# CSL = CSL (Homo sapiens, UniProt Q06330); assay: Surface plasmon resonance binding to CSL; conditions: SPR, equilibrium response fitted to 1:1 binding model
# Sequence of CSL (Q06330 whole entry): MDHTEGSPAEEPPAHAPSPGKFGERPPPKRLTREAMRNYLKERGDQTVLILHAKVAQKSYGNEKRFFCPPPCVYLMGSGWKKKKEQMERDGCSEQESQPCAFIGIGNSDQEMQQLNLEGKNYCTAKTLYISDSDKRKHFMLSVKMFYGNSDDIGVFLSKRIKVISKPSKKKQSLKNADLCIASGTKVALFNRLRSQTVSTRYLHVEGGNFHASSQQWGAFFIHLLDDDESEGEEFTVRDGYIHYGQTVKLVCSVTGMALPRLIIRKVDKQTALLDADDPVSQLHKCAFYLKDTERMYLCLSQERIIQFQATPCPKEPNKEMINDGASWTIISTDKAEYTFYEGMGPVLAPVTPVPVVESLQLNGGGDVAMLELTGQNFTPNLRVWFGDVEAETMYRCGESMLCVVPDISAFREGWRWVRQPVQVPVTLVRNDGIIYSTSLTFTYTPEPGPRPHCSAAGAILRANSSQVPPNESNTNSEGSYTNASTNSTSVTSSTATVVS
# Protocol: (§1) The inhibitors described herein were subjected to surface plasmon resonance (“SPR”) to determine their binding constants to the NICD and CSL components of the NTC. In particular, the target protein (NICD1) was immobilized on the dextran surface of the SPR sensor chip. Through a microflow system, a solution with the inhibitor was injected over the immobilized protein layer. The inhibitor bound to the immobilized protein, which led to an increase in SPR signal, indicating association of the ligand to the target protein. After 45 seconds, buffer solution was injected on the microfluidics that dissociated the bound complex between the ligand and the inhibitor. As the inhibitor dissociated from the ligand, a decrease in SPR signal was observed. The equilibrium dissociation constant KD was determined by plotting the equilibrium response (Req) as a function of the concentration of the ligand, and fitting the data to a 1:1 binding model. The results are listed in […].
# [2] = tested on: NICD in OE33 and 786-0 cells; assay: Western analysis of NICD levels; format: cell-based, human; conditions: OE33 and 786-0 cell lysates
# Protocol: The effect of inhibitor treatment on the assembly of the NTC in cells was investigated.
# Protein analysis was carried out using conventional SDS-PAGE and transfer techniques. Blots were probed with the indicated antibody (“Ab”), using standard conditions, and detected using enhanced chemiluminescence (“ECL”). The following Ab were used: anti-Notch1 (ab52627, abcam), anti-Notch1^val1744 (4147S, Cell Signaling Technology) and anti-GAPDH (ab9483, Abcam).
# [3] = tested on: esophageal adenocarcinoma PDX tumors; assay: Esophageal adenocarcinoma patient-derived xenograft (PDX); format: in vivo, mouse
# Protocol: The effect of the inhibitors of the disclosure on the growth of an established tumor also was investigated using two independent esophageal adenocarcinoma patient-derived xenograft (“PDX”) models. Tumors were established in NSG mice to the size of 250 mm^3 prior to the initiation of treatment. Mice were dosed daily via intraperitoneal (“IP”) injection with either Inhibitor No. 1-134-83 (15 mg/kg) or DAPT (20 mg/kg), and compared to DMSO vehicle control. […] Following 24 days of treatment, tumors were harvested and Notch-target gene transcription was evaluated. […] (FIG. 4) Six-week-old NOD-SCID gamma (“NSG”) mice were purchased from Jackson Laboratories and CD-1 Nude mice were purchased from Charles River Laboratories. For the cell line based xenografts assay, 5×10^6 OE19 cells in 200 μl serum-free culture medium were injected subcutaneously per mouse. The mice in the treatment group were injected with 15 mg/kg of Inhibitor No. 1-134-83 daily, and the mice in the control group were injected with the same volume of vehicle (DMSO). Subcutaneous tumor growth was measured once every 4 days using calipers along with body weight. The experiment was discontinued on day 28. PDX cancer models were established, as described in Zhang et al, Establishment of Patient-Derived Xenograft (PDX) Models of Human Breast Cancer, Current Protocols in Mouse Biology, 3:21-29 (2013), in NSG mice. Briefly, 10 mm^3 pieces of primary EAC29 PDX tumor were transplanted subcutaneously into the flanks of NSG mice using a 13G telescopic needle. When the tumors reached 200 mm^3, the mice were split into two uniform groups for treatment. Compound 1-134-83 (15 mg/kg) and vehicle were administered daily by inraperitoneal (“IP”) injection for 24 days. Tumor growth was monitored every 4 days and tumor volume was measured by the formula: Volume=(S×S×L)/2, where S and L are the short and long dimensions. The xenograft tumors were harvested, weighed and samples were subjected to histological examination and by qPCR.
# NICD1 = target: T1, NICD1 (Homo sapiens, UniProt P46531); assay: Surface plasmon resonance binding to immobilized NICD; conditions: SPR, equilibrium response fitted to 1:1 binding model
# T1 construct: the intracellular domain of Notch (“NICD”)
# T1 sequence (P46531 1754-2555 limits assumed): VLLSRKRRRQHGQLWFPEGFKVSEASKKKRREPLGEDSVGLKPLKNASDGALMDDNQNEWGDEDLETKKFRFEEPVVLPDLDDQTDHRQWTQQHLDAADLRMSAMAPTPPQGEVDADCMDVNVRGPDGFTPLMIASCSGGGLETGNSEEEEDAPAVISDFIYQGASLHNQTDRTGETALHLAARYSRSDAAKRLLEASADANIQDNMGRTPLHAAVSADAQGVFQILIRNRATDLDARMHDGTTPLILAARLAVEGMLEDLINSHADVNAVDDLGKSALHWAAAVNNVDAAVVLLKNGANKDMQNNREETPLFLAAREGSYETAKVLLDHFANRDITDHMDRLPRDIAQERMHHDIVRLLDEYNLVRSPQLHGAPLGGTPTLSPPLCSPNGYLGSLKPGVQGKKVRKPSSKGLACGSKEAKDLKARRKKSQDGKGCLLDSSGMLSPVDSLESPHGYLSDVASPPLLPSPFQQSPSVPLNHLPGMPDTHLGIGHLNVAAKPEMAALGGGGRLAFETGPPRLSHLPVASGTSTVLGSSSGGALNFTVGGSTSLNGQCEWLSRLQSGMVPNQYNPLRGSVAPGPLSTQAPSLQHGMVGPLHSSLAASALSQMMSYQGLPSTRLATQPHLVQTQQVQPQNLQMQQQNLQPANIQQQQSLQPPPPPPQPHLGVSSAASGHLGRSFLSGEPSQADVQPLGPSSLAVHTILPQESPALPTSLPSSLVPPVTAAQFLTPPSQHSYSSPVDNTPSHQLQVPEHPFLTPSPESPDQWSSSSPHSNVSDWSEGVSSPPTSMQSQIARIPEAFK
# Protocol: as §1
# [4] = tested on: cancer cell lines (OE33, 786-0 and panel); assay: Colony formation assay; format: cell-based, human; conditions: for colony formation: 7 days
# Protocol: The effect of inhibitor treatment on Notch-target gene transcription also was investigated (FIGS. 2C and 2D). […] As proof of specificity, transcription of the housekeeping gene, HPRT, was unaltered in treated cells. To test the effects of Notch inhibition on proliferation, a colony formation assay was performed.
# To extend the analysis of tumor cell growth inhibition, several commonly used cancer cell lines were selected to test for sensitivity to Inhibitor No. 1-134-83 (FIGS. 3A and 3B). […] In this analysis, sensitivity to DAPT is taken to indicate specific inhibition of Notch activity. […] Cells that are refractory to DAPT were equally resistant to Inhibitor No. 1-134-83.
# Cells were plated into a 6 well plate at a density of 2000 cells/cm^2. Inhibitor treatment commenced 24 hours post seeding, and the media containing inhibitor was changed every 48 hours thereafter. After 168 hours, cells were fixed with ice cold methanol for 10 minutes, stained for 1 hour with crystal violet, de-stained with water, and allowed to dry.
compound,measurement,setting,value
CCOC(=O)COc1ccc(/C=C2\SC(=S)NC2=O)cc1OC [1-134-83],adverse effects on the animal (e.g. change in body weight),[1]; 15 mg/kg every day,no adverse effects
same,tumor establishment,[1]; 15 mg/kg every day from second day after transplantation,tumor establishment was blocked
same,Kd,CSL,8 ± 2 µM
same,levels of NICD in cells,[2],does not change
same,weight loss or visible signs of stress,"[3]; NSG mice, 15 mg/kg daily IP",without any significant weight loss or other visible signs of stress
same,growth of established tumor,"[3]; NSG mice, two PDX models, daily IP, 1-134-83 15 mg/kg, DAPT 20 mg/kg",significantly stunted growth
same,decrease in tumor volume by the experimental endpoint,"[3]; PDX tumor, versus vehicle",three-fold
same,transcription of control gene (TBP2) in tumors,"[3]; treated PDX tumors, qPCR",unaffected
same,"level of Notch target genes (Hes1, HeyL, Notch3) in tumors","[3]; tumors harvested after 24 days of treatment, qPCR",dramatically reduced
same,Kd,NICD1,11 ± 3 µM
same,colony formation,[4]; 786-0 and OE33 cells,dose-dependent reduction
same,effective concentration,[4]; cancer cell lines,5 µM
same,cellular toxicity,"[4]; cells refractory to DAPT, dose nearly 10× the effective concentration",did not induce any cellular toxicity
same,colony formation,"[4]; insensitive cell lines, high doses",do not show changes in colony formation ability
same,colony formation,[4]; sensitive (Notch dependent) cell lines,dose-dependent decrease in colony formation
